Measurements: publication PMC5218480 (PLoS ONE, 2017)

Tested on: MV-4-11 cells
Experiment: Gene expression microarray analysis (Affymetrix PrimeView) and GSEA
Assay type: cell-based, human
Design: RFU PODN (11730768_x_at) / Fold change /veh PODN (11730768_x_at) / RFU LINC00158 (11744669_a_at) / Fold change /veh LINC00158 (11744669_a_at) / RFU DUSP10 (11751237_a_at) / Fold change /veh DUSP10 (11751237_a_at) / RFU ID3 (11757404_x_at) / Fold change /veh ID3 (11757404_x_at) / RFU PLEKHG5 (11737974_s_at) / Fold change /veh PLEKHG5 (11737974_s_at) / RFU LRRC4B (11730491_at) / Fold change /veh LRRC4B (11730491_at) / RFU GIMAP4 (11747438_a_at) / Fold change /veh GIMAP4 (11747438_a_at) / RFU KRT8 (11758183_x_at) / Fold change /veh KRT8 (11758183_x_at) / RFU CNN1 (11734310_a_at) / Fold change /veh CNN1 (11734310_a_at) / RFU VPS37D (11726825_at) / Fold change /veh VPS37D (11726825_at) / RFU C10orf10 (11716522_x_at) / Fold change /veh C10orf10 (11716522_x_at) / RFU KIR2DL2 /// KIR2DL4 /// KIR2DL5A /// KIR2DL5B /// KIR2DS1 /// KIR2DS2 /// KIR2DS3 /// KIR2DS4 /// KIR3DL3 /// KIR3DL3 /// KIR3DS1 (11738374_at) / Fold change /veh KIR2DL2 /// KIR2DL4 /// KIR2DL5A /// KIR2DL5B /// KIR2DS1 /// KIR2DS2 /// KIR2DS3 /// KIR2DS4 /// KIR3DL3 /// KIR3DL3 /// KIR3DS1 (11738374_at) / RFU C1QL1 (11718748_at) / Fold change /veh C1QL1 (11718748_at) / RFU TMPRSS4 (11747572_a_at) / Fold change /veh TMPRSS4 (11747572_a_at) / RFU HAMP (11756126_x_at) / Fold change /veh HAMP (11756126_x_at) / RFU RNFT2 (11725882_a_at) / Fold change /veh RNFT2 (11725882_a_at) / RFU NR4A2 (11747474_a_at) / Fold change /veh NR4A2 (11747474_a_at) / RFU ABCC12 (11746883_a_at) / Fold change /veh ABCC12 (11746883_a_at) / RFU TMEM136 (11760407_x_at) / Fold change /veh TMEM136 (11760407_x_at) / RFU CLDN22 /// WWC2 (11732394_at) / Fold change /veh CLDN22 /// WWC2 (11732394_at) / RFU HLA-DPB1 (11760878_x_at) / Fold change /veh HLA-DPB1 (11760878_x_at) / RFU SPINT1 (11716480_a_at) / Fold change /veh SPINT1 (11716480_a_at) / RFU GAP43 (11754022_s_at) / Fold change /veh GAP43 (11754022_s_at) / RFU A4GNT (11735810_at) / Fold change /veh A4GNT (11735810_at) / RFU PRB3 (11715151_x_at) / Fold change /veh PRB3 (11715151_x_at) / RFU TUBB4B (11761932_at) / Fold change /veh TUBB4B (11761932_at) / RFU CAPN14 (11732068_a_at) / Fold change /veh CAPN14 (11732068_a_at) / RFU TMCC2 (11721928_a_at) / Fold change /veh TMCC2 (11721928_a_at) / RFU IRGQ (11745062_a_at) / Fold change /veh IRGQ (11745062_a_at) / RFU FAM174B (11720279_a_at) / Fold change /veh FAM174B (11720279_a_at) / RFU TMPRSS4 (11748680_a_at) / Fold change /veh TMPRSS4 (11748680_a_at) / RFU FAM212B (11763350_a_at) / Fold change /veh FAM212B (11763350_a_at) / RFU PLEKHG5 (11743358_a_at) / Fold change /veh PLEKHG5 (11743358_a_at) / RFU ZSCAN30 (11745921_a_at) / Fold change /veh ZSCAN30 (11745921_a_at) / RFU CMKLR1 (11741424_a_at) / Fold change /veh CMKLR1 (11741424_a_at) / RFU LOC101060620 /// MAPK8IP1 (11723275_at) / Fold change /veh LOC101060620 /// MAPK8IP1 (11723275_at) / RFU SPTSSB (11747773_x_at) / Fold change /veh SPTSSB (11747773_x_at) / RFU PRSS12 (11739890_at) / Fold change /veh PRSS12 (11739890_at) / RFU BIN1 (11741810_x_at) / Fold change /veh BIN1 (11741810_x_at) / RFU WNT11 (11732464_a_at) / Fold change /veh WNT11 (11732464_a_at) / RFU C10orf10 (11716521_a_at) / Fold change /veh C10orf10 (11716521_a_at) / RFU C5orf56 (11738089_at) / Fold change /veh C5orf56 (11738089_at) / RFU CYB561 (11721691_x_at) / Fold change /veh CYB561 (11721691_x_at) / RFU ANKRD19P (11752326_a_at) / Fold change /veh ANKRD19P (11752326_a_at) / RFU OR2T12 /// OR2T33 /// OR2T8 (11738714_s_at) / Fold change /veh OR2T12 /// OR2T33 /// OR2T8 (11738714_s_at) / RFU VCAN (11748164_a_at) / Fold change /veh VCAN (11748164_a_at) / RFU JSRP1 (11732532_at) / Fold change /veh JSRP1 (11732532_at) / RFU KRTAP10-11 (11738290_x_at) / Fold change /veh KRTAP10-11 (11738290_x_at) / RFU MYO3A (11730013_a_at) / Fold change /veh MYO3A (11730013_a_at) / RFU EBF3 (11725865_a_at) / Fold change /veh EBF3 (11725865_a_at) / RFU CAMK2N1 (11719241_x_at) / Fold change /veh CAMK2N1 (11719241_x_at) / RFU C5orf56 (11738088_a_at) / Fold change /veh C5orf56 (11738088_a_at) / RFU OLFML3 (11715873_a_at) / Fold change /veh OLFML3 (11715873_a_at) / RFU LOC100653217 /// NTM (11731650_a_at) / Fold change /veh LOC100653217 /// NTM (11731650_a_at) / RFU MAPK11 (11762145_a_at) / Fold change /veh MAPK11 (11762145_a_at) / RFU FIZ1 (11724087_x_at) / Fold change /veh FIZ1 (11724087_x_at) / RFU OASL (11726364_x_at) / Fold change /veh OASL (11726364_x_at) / RFU SOX15 (11748057_x_at) / Fold change /veh SOX15 (11748057_x_at) / RFU CD79A (11719716_a_at) / Fold change /veh CD79A (11719716_a_at) / RFU HIST1H1D (11736915_at) / Fold change /veh HIST1H1D (11736915_at) / RFU CASKIN2 (11723855_a_at) / Fold change /veh CASKIN2 (11723855_a_at) / RFU LOC730098 (11760151_x_at) / Fold change /veh LOC730098 (11760151_x_at) / RFU OR4N2 (11742367_at) / Fold change /veh OR4N2 (11742367_at) / RFU PRRT2 (11749266_a_at) / Fold change /veh PRRT2 (11749266_a_at) / RFU SNX32 (11753110_a_at) / Fold change /veh SNX32 (11753110_a_at) / RFU CDHR5 (11726645_a_at) / Fold change /veh CDHR5 (11726645_a_at) / RFU RCAN1 (11760418_a_at) / Fold change /veh RCAN1 (11760418_a_at) / RFU FAM167A (11723789_a_at) / Fold change /veh FAM167A (11723789_a_at) / RFU FAM26E (11764081_at) / Fold change /veh FAM26E (11764081_at) / RFU ISYNA1 (11749810_s_at) / Fold change /veh ISYNA1 (11749810_s_at) / RFU ACY1 (11761880_at) / Fold change /veh ACY1 (11761880_at) / RFU 11764098_at / Fold change /veh 11764098_at / RFU SAMD14 (11745864_x_at) / Fold change /veh SAMD14 (11745864_x_at) / RFU NPB (11741838_a_at) / Fold change /veh NPB (11741838_a_at) / RFU TMPRSS6 (11731388_a_at) / Fold change /veh TMPRSS6 (11731388_a_at) / RFU KRTAP10-2 (11738614_at) / Fold change /veh KRTAP10-2 (11738614_at) / RFU ARHGAP8 /// PRR5-ARHGAP8 (11727945_x_at) / Fold change /veh ARHGAP8 /// PRR5-ARHGAP8 (11727945_x_at) / RFU KRTAP5-7 /// NADSYN1 (11734609_at) / Fold change /veh KRTAP5-7 /// NADSYN1 (11734609_at) / RFU RASL12 (11751679_a_at) / Fold change /veh RASL12 (11751679_a_at) / RFU CDKN2B (11736163_a_at) / Fold change /veh CDKN2B (11736163_a_at) / RFU PRF1 (11729649_at) / Fold change /veh PRF1 (11729649_at) / RFU, ZNF638 /// ZNF638-IT1 / Fold change vs veh, ZNF638 /// ZNF638-IT1 / RFU, PANK3 / Fold change vs veh, PANK3 / RFU, SH3YL1 / Fold change vs veh, SH3YL1 / RFU, ZEB2 / Fold change vs veh, ZEB2 / RFU, NRIP1 / Fold change vs veh, NRIP1 / RFU, PTTG1IP / Fold change vs veh, PTTG1IP / RFU, CAPN2 / Fold change vs veh, CAPN2 / RFU, MED14 / Fold change vs veh, MED14 / RFU, SNORA58 / Fold change vs veh, SNORA58 / RFU, C1orf63 / Fold change vs veh, C1orf63 / RFU, LRRFIP1 / Fold change vs veh, LRRFIP1 / RFU, NDUFAF7 / Fold change vs veh, NDUFAF7 / RFU, SLC12A2 / Fold change vs veh, SLC12A2 / RFU, IBTK / Fold change vs veh, IBTK / RFU, ESF1 / Fold change vs veh, ESF1 / Fold change vs veh, TMEM50B / RFU, TAOK1 / Fold change vs veh, TAOK1 / RFU, ACBD3 / Fold change vs veh, ACBD3 / RFU, TMA16 / Fold change vs veh, TMA16 / RFU, RWDD3 / Fold change vs veh, RWDD3 / RFU, BCAT1 / Fold change vs veh, BCAT1 / RFU, EDEM3 / Fold change vs veh, EDEM3 / RFU, TMEM33 / Fold change vs veh, TMEM33 / RFU, WDR75 / Fold change vs veh, WDR75 / RFU, AHCTF1 / Fold change vs veh, AHCTF1 / RFU, TFRC / Fold change vs veh, TFRC / RFU, ZDHHC17 / Fold change vs veh, ZDHHC17 / RFU, NOM1 / Fold change vs veh, NOM1 / RFU, ARL8B / Fold change vs veh, ARL8B / RFU, ZBTB11 / Fold change vs veh, ZBTB11 / RFU, TAMM41 / Fold change vs veh, TAMM41 / RFU, KIAA1704 /// LOC100996395 / Fold change vs veh, KIAA1704 /// LOC100996395 / RFU, ING1 / Fold change vs veh, ING1 / RFU, TRMT61B / Fold change vs veh, TRMT61B / RFU, FUBP3 / Fold change vs veh, FUBP3 / RFU, TP53 / Fold change vs veh, TP53 / RFU, TNKS2 / Fold change vs veh, TNKS2 / RFU, ZFP14 / Fold change vs veh, ZFP14 / RFU, ACTR2 / Fold change vs veh, ACTR2 / RFU, PPP3R1 / Fold change vs veh, PPP3R1 / RFU, PIK3R1 / Fold change vs veh, PIK3R1 / RFU, HNRNPA1 / Fold change vs veh, HNRNPA1 / RFU, RNF170 / Fold change vs veh, RNF170 / RFU, ZNF28 / Fold change vs veh, ZNF28 / RFU, RNGTT / Fold change vs veh, RNGTT / RFU, OGT / Fold change vs veh, OGT / RFU, BRD1 / Fold change vs veh, BRD1 / RFU, MARS / Fold change vs veh, MARS / RFU, ZNF655 / Fold change vs veh, ZNF655 / RFU, FAHD1 / Fold change vs veh, FAHD1 / RFU, BDP1 / Fold change vs veh, BDP1 / RFU, LRRCC1 / Fold change vs veh, LRRCC1 / RFU, ARID1A / Fold change vs veh, ARID1A / RFU, ZNF146 / Fold change vs veh, ZNF146 / RFU, ZNF330 / Fold change vs veh, ZNF330 / RFU, GPN3 / Fold change vs veh, GPN3 / RFU, C9orf123 / Fold change vs veh, C9orf123 / RFU, N4BP2L2 / Fold change vs veh, N4BP2L2 / RFU, ARFIP1 / Fold change vs veh, ARFIP1 / RFU, FAM179B / Fold change vs veh, FAM179B / RFU, BCL10 / Fold change vs veh, BCL10 / RFU, UHRF1BP1L / Fold change vs veh, UHRF1BP1L / RFU, BET1 / Fold change vs veh, BET1 / RFU, CNOT2 / Fold change vs veh, CNOT2 / RFU, ZNF268 / Fold change vs veh, ZNF268 / Fold change vs veh, ZNF507 / RFU, DGCR2 / Fold change vs veh, DGCR2 / RFU, WDSUB1 / Fold change vs veh, WDSUB1 / Fold change vs veh, HSP90B1 /// MIR3652 / RFU, ADSS / Fold change vs veh, ADSS / RFU, GK / Fold change vs veh, GK / RFU, ZNF148 / Fold change vs veh, ZNF148 / RFU, TAF9 / Fold change vs veh, TAF9 / RFU, SLC1A5 / Fold change vs veh, SLC1A5 / RFU, SLMO2 / Fold change vs veh, SLMO2 / RFU, ABCC4 / Fold change vs veh, ABCC4 / RFU, LOC101060439 /// RAP1B / Fold change vs veh, LOC101060439 /// RAP1B / RFU, RFX7 / Fold change vs veh, RFX7 / RFU, GTPBP10 / Fold change vs veh, GTPBP10 / RFU, CNEP1R1 / Fold change vs veh, CNEP1R1 / RFU, BIVM-ERCC5 /// ERCC5 / Fold change vs veh, BIVM-ERCC5 /// ERCC5 / RFU, ILF3 / Fold change vs veh, ILF3 / RFU 11762660_at / Fold change /veh 11762660_at / RFU VCAN (11757783_s_at) / Fold change /veh VCAN (11757783_s_at) / RFU DDX43 (11728927_at) / Fold change /veh DDX43 (11728927_at) / RFU KRT8 (11758188_x_at) / Fold change /veh KRT8 (11758188_x_at) / RFU NKD1 (11759106_at) / Fold change /veh NKD1 (11759106_at) / RFU SRD5A1 (11742802_a_at) / Fold change /veh SRD5A1 (11742802_a_at) / RFU TPSAB1 /// TPSB2 (11721975_s_at) / Fold change /veh TPSAB1 /// TPSB2 (11721975_s_at) / RFU GSTM3 (11746129_a_at) / Fold change /veh GSTM3 (11746129_a_at) / RFU IL23R (11737362_x_at) / Fold change /veh IL23R (11737362_x_at) / RFU TMEM51 (11727254_a_at) / Fold change /veh TMEM51 (11727254_a_at) / RFU PIWIL2 (11732686_x_at) / Fold change /veh PIWIL2 (11732686_x_at) / RFU ORM1 (11744905_x_at) / Fold change /veh ORM1 (11744905_x_at) / RFU CCDC152 (11743942_at) / Fold change /veh CCDC152 (11743942_at) / RFU ECM1 (11717891_a_at) / Fold change /veh ECM1 (11717891_a_at) / RFU IL23R (11748794_a_at) / Fold change /veh IL23R (11748794_a_at) / RFU TNFAIP8L3 (11732012_x_at) / Fold change /veh TNFAIP8L3 (11732012_x_at) / RFU MBOAT4 (11741988_at) / Fold change /veh MBOAT4 (11741988_at) / RFU 11764193_at / Fold change /veh 11764193_at / RFU TMEM53 (11763286_at) / Fold change /veh TMEM53 (11763286_at) / RFU MAGEB2 (11727129_at) / Fold change /veh MAGEB2 (11727129_at) / RFU TMEM200A (11744735_a_at) / Fold change /veh TMEM200A (11744735_a_at) / RFU CCDC152 (11751479_a_at) / Fold change /veh CCDC152 (11751479_a_at) / RFU FAM211A (11726209_a_at) / Fold change /veh FAM211A (11726209_a_at) / RFU RGS16 (11746705_a_at) / Fold change /veh RGS16 (11746705_a_at) / RFU VCAN (11755009_s_at) / Fold change /veh VCAN (11755009_s_at) / RFU RHOB (11743442_s_at) / Fold change /veh RHOB (11743442_s_at) / RFU RGS16 (11720943_a_at) / Fold change /veh RGS16 (11720943_a_at) / RFU RGS16 (11720944_at) / Fold change /veh RGS16 (11720944_at) / RFU, VPS4B / Fold change vs veh, VPS4B / RFU, CREB1 / Fold change vs veh, CREB1 / RFU, DNAJC13 / Fold change vs veh, DNAJC13 / RFU, GNAQ / Fold change vs veh, GNAQ / RFU, CDK5R1 / Fold change vs veh, CDK5R1 / RFU, ZRANB3 / Fold change vs veh, ZRANB3 / RFU, CUL4A / Fold change vs veh, CUL4A / RFU, CCNY / Fold change vs veh, CCNY / RFU, UFL1 / Fold change vs veh, UFL1 / RFU, COG3 / Fold change vs veh, COG3 / RFU, DIAPH2 / Fold change vs veh, DIAPH2 / RFU, SKA2 / Fold change vs veh, SKA2 / RFU, AFF3 / Fold change vs veh, AFF3 / RFU, LMF1 / Fold change vs veh, LMF1 / RFU, IPO11 / Fold change vs veh, IPO11 / RFU, DFFB / Fold change vs veh, DFFB / RFU, FOXP1 / Fold change vs veh, FOXP1 / RFU, CARD8 / Fold change vs veh, CARD8 / RFU, STRN3 / Fold change vs veh, STRN3 / RFU, ADK / Fold change vs veh, ADK / RFU, RASSF2 / Fold change vs veh, RASSF2 / RFU, WIPF1 / Fold change vs veh, WIPF1 / RFU, LARP1B / Fold change vs veh, LARP1B / RFU, RASA1 / Fold change vs veh, RASA1 / RFU, RB1 / Fold change vs veh, RB1 / RFU, PPFIA1 / Fold change vs veh, PPFIA1 / RFU, MAT2A / Fold change vs veh, MAT2A / RFU, CCT5 / Fold change vs veh, CCT5 / RFU, WDR92 / Fold change vs veh, WDR92 / RFU, CUX1 / Fold change vs veh, CUX1 / RFU, TTC7A / Fold change vs veh, TTC7A / RFU, TMEM135 / Fold change vs veh, TMEM135 / RFU, DEPTOR / Fold change vs veh, DEPTOR / RFU, CPM / Fold change vs veh, CPM / RFU, DNAJB6 / Fold change vs veh, DNAJB6 / RFU, CACNA2D3 / Fold change vs veh, CACNA2D3 / RFU, DTX4 / Fold change vs veh, DTX4 / RFU, TFCP2 / Fold change vs veh, TFCP2 / RFU, GMCL1 /// GMCL1P1 / Fold change vs veh, GMCL1 /// GMCL1P1 / RFU, AEBP2 / Fold change vs veh, AEBP2 / RFU, SNHG1 /// SNORD22 /// SNORD25 /// SNORD26 /// SNORD27 /// SNORD28 /// SNORD29 /// SNORD31 / Fold change vs veh, SNHG1 /// SNORD22 /// SNORD25 /// SNORD26 /// SNORD27 /// SNORD28 /// SNORD29 /// SNORD31 / Fold change (Aza/veh), C12orf56 (ProbeSet 11735607_a_at) / Fold change (ACY-1035/veh), C12orf56 (ProbeSet 11735607_a_at) / Fold change (Aza/veh), FGFR1OP (ProbeSet 11751329_s_at) / Fold change (ACY-1035/veh), FGFR1OP (ProbeSet 11751329_s_at) / Fold change (Aza/veh), VPS36 (ProbeSet 11739960_a_at) / Fold change (ACY-1035/veh), VPS36 (ProbeSet 11739960_a_at) / RFU SYPL1 (11715823_x_at) / Fold change /veh SYPL1 (11715823_x_at) / RFU IGFBP7 (11715501_s_at) / Fold change /veh IGFBP7 (11715501_s_at) / RFU REEP3 (11722064_at) / Fold change /veh REEP3 (11722064_at) / RFU IGLL1 (11728026_x_at) / Fold change /veh IGLL1 (11728026_x_at): dose or concentration left out as unconfirmed
Details: ProbeSet 11740011_at; LIST B

Nc1ncn([C@@H]2O[C@H](CO)[C@@H](O)[C@H]2O)c(=O)n1 [azacitidine]
Fold change vs veh, ZFP14: 0.92
